Results as given in patent publication US20260078099A1, “COMPOUND, PREPARATION METHOD THEREOF, AND LIPID NANOPARTICLE AND PHARMACEUTICAL COMPOSITION” (priority 2023, published 2026).

Tests used:
LNP zeta potential = assay type: physicochemical; conditions: mRNA LNP
mice = test: Bioluminescent study, intramuscular injection of F-luc mRNA LNPs; assay type: in vivo; conditions: F-luc luminescence flux normalized to MC3; 0.25 mg/kg intramuscular, mice n=3, 6-hour time point
In short: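 Mice (n=3) received LNP-formulated F-luc mRNA at 0.25 mg/kg intramuscularly. Bioluminescence was read 6 h after dosing. Test LNPs were made with an MC3 formulation, and PBS served as control in some groups.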

[1] = LNP size and PDI by dynamic light scattering; assay type: physicochemical; conditions: for PDI / Size (nm): mRNA LNP, cationic lipid/DSPC/cholesterol/PEG-lipid 50:10:38.5:1.5
[2] = LNP encapsulation efficiency (Quant-it Ribogreen); assay type: physicochemical; conditions: mRNA LNP, cationic lipid/DSPC/cholesterol/PEG-lipid 50:10:38.5:1.5

| Zeta potential (mV) (LNP zeta potential) | PDI [1] | Size (nm) [1] | Encapsulation efficiency (%) [2] | Compound | Relative Total flux (mice) | particle sizes by dynamic light scattering (FIG. 22) ([1]; mRNA-loaded LNPs) |
| --- | --- | --- | --- | --- | --- | --- |
| −6.41 mV | 0.15 | 104.5 nm | 85.90% | CCCCCCCC(C(=O)NCCCCCCCCCC(=O)OC(CCCCCC)CCCCCC)N(CCCN(CCO)CCO)C(=O)CCCCCCCCCC(=O)OC(CCCCCC)CCCCCC (centres unmarked) [Compound B2] | A (A: ≥2) |  |
| 11.03 mV | 0.071 | 95.73 nm | 54.53% | CCCCC/C=C\C/C=C\CCCCCCCC(=O)N(CCCN1CCCC1)CC(=O)NCCCCCCCCCCCCCC [Compound A21] | C (C: ≥0.1 and <1) |  |
| −15.91 mV | 0.593 | 91.81 nm | 82.13% | CCCCCCC(CCCCCC)OC(=O)CCCCCCCCCNC(=O)C(CCCCCCCCCC(=O)OC(CCCCCC)CCCCCC)N(CCCN1CCN(C)CC1)C(=O)CCCN1CCN(C)CC1 (centres unmarked) [Compound E9] | C (C: ≥0.1 and <1) |  |
| −2.69 mV | 0.153 | 78.3 nm | 50.77% | CCCCCCCC(C(=O)NCCCCCCCCCC(=O)OC(CCCCCC)CCCCCC)N(CCCN1CCCC1)C(=O)CCCCCCCCCC(=O)OC(CCCCCC)CCCCCC (centres unmarked) [Compound A2] | C (C: ≥0.1 and <1) |  |
| 4.79 mV | 0.187 | 80.68 nm | 81.99% | CCCCCCCC(C(=O)NCCCCCCCCCC(=O)OC(CCCCCC)CCCCCC)N(CCn1ccnc1)C(=O)CCCCCCCCCC(=O)OC(CCCCCC)CCCCCC (centres unmarked) [Compound B18] | A (A: ≥2) |  |
| 10.58 mV | 0.159 | 72.08 nm | 96.14% | CCCCCCCC(C(=O)NCCCCCCCCCC(=O)OC(CCCCCC)CCCCCC)N(CCCN(CCO)CCO)C(=O)CCCCCCCCCC(=O)OCC12CC3CC(CC(C3)C1)C2 (centres unmarked) [Compound B4] | A (A: ≥2) |  |
| −9.55 mV | 0.207 | 63.48 nm | 24.84% | CCCCCCCC(C(=O)NCCCCCCCCCC(=O)OC(CCCCCC)CCCCCC)N(CCCN(C)C)C(=O)CCCCCCCCCC(=O)OC(CCCCCC)CCCCCC (centres unmarked) [Compound A12] | C (C: ≥0.1 and <1) |  |
| −0.39 mV | 0.183 | 61.81 nm | 75.47% | CCCCCCCC(C(=O)NCCCCCCCCCC(=O)OC(CCCCCC)CCCCCC)N(CCNCCO)C(=O)CCCCCCCCCC(=O)OC(CCCCCC)CCCCCC (centres unmarked) [Compound B6] | A (A: ≥2) |  |
| 5.03 mV | 0.205 | 95.73 nm | 95.18% | CCCCCCC(CCCCCC)OC(=O)CCCCCCCCCNC(=O)C(CCCCCCCCCC(=O)OC(CCCCCC)CCCCCC)N(CCCN(CCO)CCO)C(=O)CCCN(CC)CC (centres unmarked) [Compound E4] | A (A: ≥2) |  |
| −9.02 mV | 0.183 | 65.03 nm | 93.45% | CCCCCCCC(C(=O)NCCCCCCCCCC(=O)OC(CCCCCC)CCCCCC)N(CCCN(CCO)C1CCCC1)C(=O)CCCCCCCCCC(=O)OC(CCCCCC)CCCCCC (centres unmarked) [Compound B12] | A (A: ≥2) |  |
| −3.48 mV | 0.165 | 141.8 nm | 95.03% | CCCCCCCC(C(=O)NCCCCCCCCCC(=O)OC(CCCCCC)CCCCCC)N(CCCNc1c(NC)c(=O)c1=O)C(=O)CCCCCCCCCC(=O)OC(CCCCCC)CCCCCC (centres unmarked) [Compound B22] | B (B: ≥1 and <2) |  |
| −2.89 mV | 0.075 | 225.6 nm | 71.39% | CCCCCCCCC(C(=O)NCCCCCCCCCC(=O)OC(CCCCCC)CCCCCC)N(CCCN(C)C)C(=O)CCCCCCCCCC(=O)OC(CCCCCC)CCCCCC (centres unmarked) [Compound A11] | D (D: <0.1.) |  |
| −0.55 mV | 0.19 | 107.50 nm | 94.31% | CCCCCCCCC(CCCCCC)COC(=O)CCCCCNC(=O)C(CCCCC)N(CCCCN1CCCC1)C(=O)CCCCCC(=O)OCC(CCCCCC)CCCCCCCC (centres unmarked) [Compound A46] | A (A: ≥2) |  |
| −12.25 mV | 0.135 | 82.96 nm | 67.41% | CCCCCCCCC(C(=O)NCCCCCCCCCC(=O)OC(CCCCCC)CCCCCC)N(CCCN1CCCC1)C(=O)CCCCCCCCCC(=O)OC(CCCCCC)CCCCCC (centres unmarked) [Compound A1] | B (B: ≥1 and <2) |  |
| −3.38 mV | 0.095 | 64.2 nm | 69.52% | CCCCCCCC(C(=O)NCCCCCCCCCC(=O)OC(CCCCCC)CCCCCC)N(CCOC(=O)CCN1CCCC1)C(=O)CCCCCCCCCC(=O)OC(CCCCCC)CCCCCC (centres unmarked) [Compound B25] | A (A: ≥2) |  |
| 17.70 mV | 0.113 | 93.07 nm | 60.65% | CCCCCCCCC(C(=O)NCCCCCCCCCC(=O)OCC1CC=CCC1)N(CCCN(C)C)C(=O)CCCCCCCCCC(=O)OC(CCCCCC)CCCCCC (centres unmarked) [Compound A20] | D (D: <0.1.) |  |
| −17.73 mV | 0.13 | 60.62 nm | 92.48% | CCCCCCCCC(C(=O)NCCCCCCCCCC(=O)OCCCCCC)N(CCCN1CCCC1)C(=O)CCCCCCCCCC(=O)OC(CCCCCC)CCCCCC (centres unmarked) [Compound A5] | D (D: <0.1.) |  |
| 2.90 mV | 0.157 | 118.5 nm | 94.62% | CCCCCCCCC(C(=O)NCCCCCCCCCC(=O)OC(CCCC)CCCCCC)N(CCCN(C)C)C(=O)CCCCCCCCCC(=O)OC(CCCC)CCCCCC (centres unmarked) [Compound A13] | B (B: ≥1 and <2) |  |
| −9.54 mV | 0.234 | 55.75 nm | 84.80% | CCCCCCCCC(C(=O)NCCCCCCCCCC(=O)OCCCCCC)N(CCCN1CCCC1)C(=O)CCCCCCCCCC(=O)OCCCCCC (centres unmarked) [Compound A6] | A (A: ≥2) |  |
| −0.68 mV | 0.07 | 60.77 nm | 53.24% | CCCCCCCC(C(=O)NCCCCCCCCCC(=O)OC(CCCCCC)CCCCCC)N(CCCN(C)C)C(=O)CCCCCCCCCC(=O)OCC12CC3CC(CC(C3)C1)C2 (centres unmarked) [Compound A17] | D (D: <0.1.) |  |
| −9.45 mV | 0.143 | 78.64 nm | 91.65% | CCCCCCC(CCCCCC)OC(=O)CCCCCCCCCNC(=O)C(CCCCCCCCCC(=O)OC(CCCCCC)CCCCCC)N(CCCN(CCO)CCO)C(=O)CCCN(C)CCO (centres unmarked) [Compound E2] | C (C: ≥0.1 and <1) |  |
| −9.96 mV | 0.245 | 68.83 nm | 93.57% | CCCCCCCC(C(=O)NCCCCCCCCCC(=O)OC(CCCCCC)CCCCCC)N(CCOC(=O)CCN(C)C)C(=O)CCCCCCCCCC(=O)OC(CCCCCC)CCCCCC (centres unmarked) [Compound B24] | A (A: ≥2) |  |
| 6.22 mV | 0.388 | 84.45 nm | 93.97% | CCCCCCCC(C(=O)NCCCCCCCCCC(=O)OC(CCCCCC)CCCCCC)N(CCCNC(=S)N(C)C)C(=O)CCCCCCCCCC(=O)OC(CCCCCC)CCCCCC (centres unmarked) [Compound B21] | B (B: ≥1 and <2) |  |
| 2.73 mV | 0.13 | 76.67 nm | 89.01% | CCCCCCCC(C(=O)NCCCCCCCCCC(=O)OC(CCCCCC)CCCCCC)N(CCCN(CCO)C1CCCCC1)C(=O)CCCCCCCCCC(=O)OC(CCCCCC)CCCCCC (centres unmarked) [Compound B14] | A (A: ≥2) |  |
| −1.65 mV | 0.22 | 105.63 nm | 92.99% | CCCCCCCCNC(=O)C(CCCCCCCC)N(CCCN(CCO)CCO)C(=O)CCCCCCC(=O)OC(CCCCCCCC)CCCCCCCC (centres unmarked) [Compound B26] | D (D: <0.1.) |  |
| 0.78 mV | 0.183 | 78.42 nm | 41.55% | CCCCCCCCC(C(=O)NCCCCCCCCCC(=O)OCCCCCC)N(CCCN(C)C)C(=O)CCCCCCCCCC(=O)OCCCCCC (centres unmarked) [Compound A16] | C (C: ≥0.1 and <1) |  |

| Compound | Zeta potential (mV) (LNP zeta potential) | PDI [1] | Size (nm) [1] | Encapsulation efficiency (%) [2] | Relative Total flux (mice) | particle sizes by dynamic light scattering (FIG. 22) ([1]; mRNA-loaded LNPs) |
| --- | --- | --- | --- | --- | --- | --- |
| CCCCC/C=C\C/C=C\CCCCCCCCC(CCCCCCCC/C=C\C/C=C\CCCCC)OC(=O)CCCN(C)C [DLin-MC3, reference compound] | −3.25 mV | 0.036 | 87.75 nm | 95.24% | B (B: ≥1 and <2) |  |
| CCCCCCCCCCCOC(=O)CCCCCN(CCO)CCCCCCCC(=O)OC(CCCCCCCC)CCCCCCCC [SM-102, reference compound] | −1.23 mV | 0.058 | 89.08 nm | 96.25% | A (A: ≥2) | approximately 100 nm |
| CCCCCCCCC(CCCCCC)C(=O)OCCCCCCN(CCCCO)CCCCCCOC(=O)C(CCCCCC)CCCCCCCC (centres unmarked) [ALC-0315] | −0.76 mV | 0.082 | 70.12 nm | 93.27% | A (A: ≥2) |  |
